According to patent publication US9993491B2, “Guanine riboswitch binding compounds and their use as antibiotics” (SOCPRA—SCIENCES ET GENIE S.E.C., priority 2009, dated 2018):
In brackets after ≈: the same amount, converted by molar mass. Like-named read-outs stand apart in the source and are kept apart here.

Key:
[1] = test system: guanine xpt riboswitch from Streptococcus pyogenes (STPY-xpt); test: Relative binding by displacement of 2-aminopurine from the STPY-xpt aptamer
Description: Shown in FIG. 4A is the structure of the guanine ligand and the compounds: 4-hydroxy-2,5,6-triaminopyrimidine shown as 2,5,6-triaminopyrimidine-4-one (compound 1.01), 2,4-diamino-6-hydroxypyrimidine shown as 2,6-diaminopyrimidine-4-one (compound 1.13) and 5,6-diamino-uracil (2AU) as well as their predicted hydrogen bonds (arrows). […] The experiment was performed as in for example Mulhbacher and Lafontaine, 2007. […] Briefly, STPY-xpt aptamers were incubated in the presence of the guanine-like ligand 2-aminopurine alone (Neg. control) or in the presence of 1 or 10 μM of the above-listed compounds. The relative binding affinity was obtained from the ability of a ligand to displace the 2-aminopurine from the guanine riboswitch STPY-xpt aptamer.

E. coli ATCC 35695 = test: Antibiogram with 6-thioguanine; format: cell-based; settings: 0.5 or 1 mg/mL; E. coli ATCC 35695 (lacks guaA riboswitch)
[2] = test system: methicillin resistant S. aureus; test: Antibiogram with 6-thioguanine; format: cell-based; settings: 0.5 or 1 mg/mL
[3] = test system: S. aureus strain ATCC 29213; format: cell-based; settings: sub-inhibitory concentrations, MIC determined every 5 passages up to 30
[4] = Tolerance of intramammary injection in cows; format: in vivo, Holstein cows; settings: intramammary 100 mg, 250 mg or 500 mg per quarter, 4 cows, 48 h
S. aureus = S. aureus infection of the mouse mammary glands, CFU count; format: in vivo; settings: intra-mammary injection of 10 times the effective dose; treated 4 h after infection, glands excised 6 h later
Description: The efficacy of compound 1.01 in treating a S. aureus infection of the mouse mammary glands was examined. Briefly, mouse mammary glands were infected with 100 CFU of S. aureus. Four hours after the inoculation, the glands were treated with vehicle (PBS), 10, 50 or 100 μg/gland of compound 1.01. Six hours later, glands were excised, homogenized and plated on Mueller-Hinton agar. CFU were then counted after 18 hours at 35° C. Each dot represents the CFU of each individual gland (n=6-12) and the median value for each group is indicated by the bar. Statistical differences (P<0.05) between CFU recovered from treated and untreated animals are shown by asterisks (non-parametric Kruskal-Wallis ANOVA with Dunn's post test).

[5] = test system: S. aureus strain ATCC 29213; test: MIC / growth inhibition, microdilution method; format: cell-based; settings: for MIC: Staphylococcus aureus, ATCC29213, 24 h; for S. aureus growth inhibition: Yes/No
E. coli Imp = test: microbe, parasite or virus in culture; settings: Escherichia coli, 24 h, read-out: Minimum inhibitory concentration (MIC)
S. aureus Chronic #3 = test: Bactericidal activity, fold reduction of CFU/mL; format: cell-based; settings: 600 μg/mL, 4 hours
Description: (§1) The bactericidal activity of compound 1.01 on various strains of S. aureus (including 3 chronic strains and 3 prototypical strains) was determined. These strains include prototypical S. aureus strains ATCC 29213, Newbould 305, SHY97-3906 as well as S. aureus strains isolated from persistent and chronic bovine mastitis cases (isolates #3, #557, #1290). C. difficile strain Cd6 was also examined. […] The results are summarized in Table 5 below and are expressed as the mean fold reduction of CFU/mL (i.e., the number of CFU/mL of control bacteria divided by the number of CFU/mL of treated bacteria).

S. aureus Newbould 305 = test: Bactericidal activity, fold reduction of CFU/mL; format: cell-based; settings: 600 μg/mL, 4 hours
Description: as §1

S. aureus Chronic #557 = test: Bactericidal activity, fold reduction of CFU/mL; format: cell-based; settings: 600 μg/mL, 4 hours
Description: as §1

C. difficile (Cd6) = test: Bactericidal activity, fold reduction of CFU/mL; format: cell-based; settings: 600 μg/mL, 4 hours
Description: as §1

S. aureus Chronic #1290 = test: Bactericidal activity, fold reduction of CFU/mL; format: cell-based; settings: 600 μg/mL, 4 hours
Description: as §1

S. aureus SHY97-3906 = test: Bactericidal activity, fold reduction of CFU/mL; format: cell-based; settings: 600 μg/mL, 4 hours
Description: as §1

S. aureus ATCC 29213 = test: Bactericidal activity, fold reduction of CFU/mL; format: cell-based; settings: 600 μg/mL, 4 hours
Description: as §1

[6] = test system: Bacillus halodurans, S. haemolyticus, S. aureus ATCC29213, SA228a, MRSA COL, Clostridium botulinum, Clostridium difficile Cd6 and 630, S. epidermidis; format: cell-based
[7] = test system: Bacillus subtilis, Enterococcus feacium, Listeria monocytogenes, Streptococcus dysgalactiae, Streptococus pyogenes, Streptococcus uberis; format: cell-based
S. aureus genes = test: Transcriptomic microarray analysis of more than 500 genes; format: cell-based; settings: 30 min
[8] = test system: S. aureus strain ATCC 29213; test: Growth as a function of time (CFU counts); format: cell-based; settings: compared with ciprofloxacin
E. coli AcrAB—/— = test: microbe, parasite or virus in culture; settings: Escherichia coli, 24 h, read-out: Minimum inhibitory concentration (MIC)
E. coli ATCC35695 = test: MIC, microdilution method in 96-well microplates; settings: for MIC: Escherichia coli, ATCC35695, 24 h, read-out: Minimum inhibitory concentration (MIC); for Antimicrobial activity on E. coli: E. coli strain ATCC 35695
guanine riboswitch = test: Guanine riboswitch binding (Table 6); settings: Yes/No
[9] = compound at 10 μM, compared with 1 μM guanine
[10] = S. aureus ATCC 29213, 24 h, 37° C., read-out: MIC
[11] = S. aureus ATCC 29213, 24 h, 37° C., read-out: S. aureus growth inhibition, MIC

Question: With Nc1[nH]c(=O)[nH]c(=O)c1N as the compound, how does the Relative binding [1, 9] read?
Answer: 0.05

Question: Which results are given for Nc1nc2[nH]cnc2c(=S)[nH]1 [6-thioguanine]?
Answer: Antibiotic activity in antibiogram (E. coli ATCC 35695): non-specific antibiotic activity; Antibiotic activity in antibiogram [2]: non-specific antibiotic activity; Relative binding [1, 9]: 0.14

Question: For Nc1nc(N)c(N)c(O)n1 [Compound 1.01, 4-hydroxy-2,5,6-triaminopyrimidine], which “Passages until resistance is selected” value [3] is on record?
Answer: at least 30 passages

Question: What about the “Body temperature, milk appearance, milk somatic cell counts, milk quarter production” value [4] of the same compound?
Answer: no change in body temperature, milk appearance, milk somatic cell counts or individual milk quarter production

Question: What about the “Reduction of bacterial counts” value (S. aureus) of the same compound?
Answer: > 3 log10

Question: What about the MIC [5, 10] of the same compound?
Answer: ~600 µg/mL (≈ 4250 µM)

Question: And the MIC (E. coli Imp)?
Answer: > 5000 µg/mL

Question: What about the “Fold reduction of CFU/mL (control/treated), Mean (log10)” value (S. aureus Chronic #3) of the same compound?
Answer: 5.11 log10

Question: And the “Fold reduction of CFU/mL (control/treated), Mean (log10)” value (S. aureus Newbould 305)?
Answer: 4.86 log10

Question: What about the “Fold reduction of CFU/mL (control/treated), Mean (log10)” value (S. aureus Chronic #557) of the same compound?
Answer: 4.38 log10

Question: And the “Fold reduction of CFU/mL (control/treated), Mean (log10)” value (C. difficile (Cd6))?
Answer: 5.42 log10

Question: And the “Fold reduction of CFU/mL (control/treated), Mean (log10)” value (S. aureus Chronic #1290)?
Answer: 5.42 log10

Question: And the “Fold reduction of CFU/mL (control/treated), Mean (log10)” value (S. aureus SHY97-3906)?
Answer: 6.35 log10

Question: What about the “Fold reduction of CFU/mL (control/treated), Mean (log10)” value (S. aureus ATCC 29213) of the same compound?
Answer: 6.67 log10

Question: What about the “Sensitivity of strains in antibiogram” value [6] of the same compound?
Answer: sensitive

Question: And the “Sensitivity of strains in antibiogram” value [7]?
Answer: insensitive

Question: And the Relative binding [1, 9]?
Answer: 0.26

Question: What about the “Cytotoxicity upon histological observations of mammary tissues” value (100 μg/gland, compared to PBS-treated glands) of the same compound?
Answer: no apparent cytotoxicity

Question: What about the “Signs of toxicity in mice (posture, breathing, piloerection, movement)” value (mouse, in vivo) of the same compound?
Answer: without causing any significant signs of toxicity

Question: And the Genes repressed (S. aureus genes; 600 μg/mL compound alone)?
Answer: > 75%

Question: And the Genes repressed (S. aureus genes; 600 μg/mL compound supplemented with 100 μM GMP)?
Answer: 20%

Question: And the “Rapidity of anti-bacterial effect” value [8]?
Answer: as rapid as that of the well-known antibiotic ciprofloxacin

Question: And the MIC (E. coli AcrAB—/—)?
Answer: > 5000 µg/mL

Question: And the MIC (E. coli ATCC35695)?
Answer: > 5000 µg/mL

Question: With Nc1cc(=O)[nH]c(N)n1 [Compound 1.13, 2,4-diamino-6-hydroxypyrimidine] as the compound, how does the MIC [5, 10] read?
Answer: ~5000 µg/mL (≈ 39600 µM)

Question: What about the MIC (E. coli Imp) of the same compound?
Answer: > 5000 µg/mL

Question: What about the Relative binding [1, 9] of the same compound?
Answer: 0.39

Question: What about the MIC (E. coli AcrAB—/—) of the same compound?
Answer: > 5000 µg/mL

Question: What about the MIC (E. coli ATCC35695) of the same compound?
Answer: > 5000 µg/mL

Question: For Nc1nc(S)[nH]c(=O)c1N [Compound 1.16, 4,5-diamino-6-hydroxy-2-mercaptopyrimidine], which MIC [5, 11] is on record?
Answer: 128 µg/mL (≈ 809 µM)

Question: And the “S. aureus growth inhibition” value [5]?
Answer: Yes

Question: What about the Guanine riboswitch binding (guanine riboswitch) of the same compound?
Answer: Yes

Question: What about the “Antimicrobial activity on E. coli” value (E. coli ATCC35695) of the same compound?
Answer: no antimicrobial activity

Question: Which results are given for Nc1nc2ocnc2c(=O)[nH]1 [Compound 2.02, 5-Amino-6H-oxazolo[5,4-d]pyrimidin-7-one]?
Answer: S. aureus growth inhibition, MIC ([5]; S. aureus ATCC 29213, 24 h, 37° C.): 1000 µg/mL; MIC [5, 11]: 1020 µg/mL (≈ 6730 µM); S. aureus growth inhibition [5]: Yes; Guanine riboswitch binding (guanine riboswitch): able to bind guanine riboswitch and Yes; Antimicrobial activity on E. coli (E. coli ATCC35695): no antimicrobial activity

Question: Which results are given for Nc1nc2nc(Cl)sc2c(=O)[nH]1 [Compound 2.17, 5-amino-2-chloro-2,3-dihydrothiazolo[4,5]pyrimidine-7-(6H)-one]?
Answer: MIC [5, 11]: 128 µg/mL (≈ 632 µM); S. aureus growth inhibition [5]: Yes; Guanine riboswitch binding (guanine riboswitch): Yes; Antimicrobial activity on E. coli (E. coli ATCC35695): no antimicrobial activity

Question: For CC[C@H]1OC(=O)[C@H](C)[C@@H](O[C@H]2C[C@@](C)(OC)[C@@H](O)[C@H](C)O2)[C@H](C)[C@@H](O[C@@H]2O[C@H](C)C[C@H](N(C)C)[C@H]2O)[C@](C)(O)C[C@@H](C)C(=O)[C@H](C)[C@@H](O)[C@]1(C)O [Erythromicin, reference compound], which MIC [5, 10] is on record?
Answer: 0.5 µg/mL (≈ 0.681 µM)

Question: And the MIC (E. coli Imp)?
Answer: 0.125 to 1 µg/mL (≈ 0.17 to 1.36 µM)

Question: What about the MIC (E. coli AcrAB—/—) of the same compound?
Answer: 1 to 4 µg/mL (≈ 1.36 to 5.45 µM)

Question: And the MIC (E. coli ATCC35695)?
Answer: 128 µg/mL (≈ 174 µM)

Question: Which results are given for CN[C@H](CC(C)C)C(=O)N[C@H]1C(=O)N[C@@H](CC(N)=O)C(=O)N[C@H]2C(=O)N[C@H]3C(=O)N[C@H](C(=O)N[C@H](C(=O)O)c4cc(O)cc(O)c4-c4cc3ccc4O)[C@H](O)c3ccc(c(Cl)c3)Oc3cc2cc(c3O[C@@H]2O[C@H](CO)[C@@H](O)[C@H](O)[C@H]2O[C@H]2C[C@](C)(N)[C@H](O)[C@H](C)O2)Oc2ccc(cc2Cl)[C@H]1O [Vancomycin, reference compound]?
Answer: MIC [5]: 1 µg/mL (≈ 0.69 µM); MIC (E. coli Imp): 0.25 µg/mL (≈ 0.173 µM); MIC (E. coli AcrAB—/—): > 128 µg/mL; MIC (E. coli ATCC35695): > 128 µg/mL

Question: With Nc1ncnc2[nH]cnc12 [adenine] as the compound, how does the Relative binding [1, 9] read?
Answer: 0.05

Question: Which MIC [5, 10] does the source give for O=C(O)c1cn(C2CC2)c2cc(N3CCNCC3)c(F)cc2c1=O [ciprofloxacin, reference compound] here?
Answer: 0.5 µg/mL (≈ 1.51 µM)

Question: Which Relative binding ([1]; compound at 1 μM) does the source give for Nc1nc2[nH]cnc2c(=O)[nH]1 [guanine] here?
Answer: 1

Question: With O=c1[nH]cnc2[nH]cnc12 [hypoxanthine] as the compound, how does the Relative binding [1, 9] read?
Answer: 0.50

Question: For O=c1[nH]c(=O)c2nc[nH]c2[nH]1 [xanthine], which Relative binding [1, 9] is on record?
Answer: 0.08
